Experimental data taken from patent US7405205B2, “Antitumor antisense sequences directed against R1 and R2 components of ribonucleotide reductase” (Lorus Therapeutics Inc., priority 1996, dated 2008).
Strand notation (5' to 3'): a small letter for the sugar, then the base; units joined by * are phosphorothioate-linked, units joined directly phosphodiester-linked; [ ] holds rarer units or linkages, { } end groups; capitals alone tell only the bases. d = 2'-deoxy (DNA)

test system: T24 bladder cell carcinoma; assay: Relative colony forming efficiency after antisense treatment (Table 13); format: cell-based, human; settings: 0.2 μM antisense oligodeoxyribonucleotide phosphorothioate; T24 cells; averages of 2-8 determinations

Row | Sequence | Reduced relative colony forming efficiency, expressed as % inhibition, T24
1 | ATGGAAAAAAAAAATCAGCC (DNA, all phosphorothioate, methylation of C not given here) [AS-II-1390-20] | 61.13%
2 | CACACAACCTACTTACACCA (antisense; DNA, all phosphorothioate, methylation of C not given here) [AS-II-2372-20] | 61.13%
3 | CGGGTCCGTGATGGGCGCGA (dC*dG*dG*dG*dT*dC*dC*dG*dT*dG*dA*dT*dG*dG*dG*dC*dG*dC*dG*dA; antisense) [AS-II-217-20] | 65.02%
4 | ACCCTTCCCATTGGCTGCGC (dA*dC*dC*dC*dT*dT*dC*dC*dC*dA*dT*dT*dG*dG*dC*dT*dG*dC*dG*dC; antisense) [AS-II-6-20] | 73.85%
5 | TGCCTCCGACCCTTCCCATT (antisense dT*dG*dC*dC*dT*dC*dC*dG*dA*dC*dC*dC*dT*dT*dC*dC*dC*dA*dT*dT) [AS-II-14-20] | 77.59%

test system: HCT116 colon cell carcinoma; assay: as above; format: cell-based, human; settings: 0.2 μM antisense oligodeoxyribonucleotide phosphorothioate; HCT116 cells; averages of 2-8 determinations

Row | Sequence | Reduced relative colony forming efficiency, expressed as % inhibition, HCT116
6 | ATGGAAAAAAAAAATCAGCC (DNA, all phosphorothioate, methylation of C not given here) [AS-II-1390-20] | 62.18%
7 | CACACAACCTACTTACACCA (antisense; DNA, all phosphorothioate, methylation of C not given here) [AS-II-2372-20] | 64.7%
8 | CGGGTCCGTGATGGGCGCGA (dC*dG*dG*dG*dT*dC*dC*dG*dT*dG*dA*dT*dG*dG*dG*dC*dG*dC*dG*dA; antisense) [AS-II-217-20] | 61.85%
9 | GCACATCTTCAGTTCATTTA (DNA, all phosphorothioate, methylation of C not given here) [AS-II-1362-20] | 78.47%

test system: A549 lung cell carcinoma; assay: as above; format: cell-based, human; settings: 0.2 μM antisense oligodeoxyribonucleotide phosphorothioate; A549 cells; averages of 2-8 determinations

Row | Sequence | Reduced relative colony forming efficiency, expressed as % inhibition, A549
10 | ATGGAAAAAAAAAATCAGCC (DNA, all phosphorothioate, methylation of C not given here) [AS-II-1390-20] | 88.31%
11 | CACACAACCTACTTACACCA (antisense; DNA, all phosphorothioate, methylation of C not given here) [AS-II-2372-20] | 96.41%
12 | GCACATCTTCAGTTCATTTA (DNA, all phosphorothioate, methylation of C not given here) [AS-II-1362-20] | 83.9%

test system: MDA-MB-231 breast cell adenocarcinoma; assay: Relative colony forming efficiency after antisense treatment (Table 13, FIG. 11, FIG. 12); format: cell-based, human; settings: 0.2 μM antisense oligodeoxyribonucleotide phosphorothioate; MDA-MB-231 cells; averages of 2-8 determinations
Protocol: Colony forming efficiency was determined as previously reported [Huang and Wright, 1994]. The cells were cultured for 24 hours at 37° C. in growth medium with 10% fetal bovine serum. The cells were washed in 5 ml phosphate buffered saline, pH 7.2, once prior to lipofectin+/−oligonucleotide treatment.
The oligonucleotides being tested were added to cell cultures in the presence of 2.5 μg of DOTMA/DOPE (Lipofectin; Life Technologies, Inc.) for four hours. The oligonucleotide was tested at 0.2 μM unless otherwise indicated. Controls were the cultures treated with lipofectin but without the oligonucleotide. After 4 hours the medium containing the oligonucleotide was removed and washed with 5 ml of growth medium. The cells were then cultured in growth medium containing 10% fetal bovine serum for seven to ten days. Surviving cells were visualized by methylene blue staining, and colonies were scored. In some experiments cell aliquotes were removed from the culture and viability was determined using the trypan blue exclusion test [Phillips, 1973]. Results were analyzed as percent of surviving cells compared to control cells.
To test the antisense effects of many of these sequences as phosphorthioate deoxyribonucleotides, they were examined in relative colony forming experiments performed with a series of human tumor cell lines. Many of these antisense constructs, as predicted, are potent inhibitors of human tumor cell proliferation. For results obtained with cancer cells derived from the bladder, breast, lung, colon, pancreas, prostate, liver and cervix, see Table 13. In addition, in vivo studies with AS-II-626-20 were undertaken in C3H/HeN mice as reported in Table 14 and show a significant reduction in metastasis in the antisense treated mice.
Colony forming ability of MDA-MB-231 human breast cancer cells treated with 28 different antisense oligonucleotides was estimated as previously described (Choy et al., 1988). Aliquots of cell suspension were seeded into 60 mm Petri dishes and incubated at 37° C. overnight in α-MEM medium supplemented with 10% fetal bovine serum. Cells were washed in 5 ml of phosphate buffered saline, pH 7.2, prior to 0.2 μM antisense/lipofectin treatments for 4 hours. The media containing the antisense oligonucleotides were removed and cells were washed once and cultured in growth medium for 7 to 10 days. Colonies were stained with methylene blue and scored as described (Choy et al., 1988; Huang and Wright 1994). Percent inhibition was calculated by comparison with the number of colonies present in cultures grown in the absence of antisense oligonucleotides. All experiments were performed in quadruplicate. FIG. 11 is a graph of the percentage inhibition of colony formation by treatment with the various antisense oligonucleotides.
Colony forming ability of various human tumor cell lines was estimated by determining relative colony forming efficiencies (Choy et al., 1988). Cells from various cell lines were washed in 5 ml of phosphate buffered saline, pH 7.2. The cells were treated with 0.2 μM AS-I-618-20 antisense oligonucleotide/lipofectin for 4 hours. The medium containing the antisense oligonucleotide was then removed and the cells were gently washed with 5 ml of growth medium. The cells were cultured in growth medium containing 10% fetal bovine serum for seven to ten days. […] The following human tumor cell lines were evaluated: HepG2 (liver), SK-OV-3 (ovary), U87 (brain), A2058 (melanoma), H460 (lung), MDA-MB-231 (breast) and AsPC-1 (pancreas).

Row | Sequence | Reduced relative colony forming efficiency, expressed as % inhibition, MDA-MB-231
13 | ATGGAAAAAAAAAATCAGCC (DNA, all phosphorothioate, methylation of C not given here) [AS-II-1390-20] | 66.89%
14 | CACACAACCTACTTACACCA (antisense; DNA, all phosphorothioate, methylation of C not given here) [AS-II-2372-20] | 90.09%
15 | CGGGTCCGTGATGGGCGCGA (dC*dG*dG*dG*dT*dC*dC*dG*dT*dG*dA*dT*dG*dG*dG*dC*dG*dC*dG*dA; antisense) [AS-II-217-20] | 52.7%
16 | GCACATCTTCAGTTCATTTA (DNA, all phosphorothioate, methylation of C not given here) [AS-II-1362-20] | 70.22%
17 | ACCCTTCCCATTGGCTGCGC (dA*dC*dC*dC*dT*dT*dC*dC*dC*dA*dT*dT*dG*dG*dC*dT*dG*dC*dG*dC; antisense) [AS-II-6-20] | 88.4%
18 | TGCCTCCGACCCTTCCCATT (antisense dT*dG*dC*dC*dT*dC*dC*dG*dA*dC*dC*dC*dT*dT*dC*dC*dC*dA*dT*dT) [AS-II-14-20] | 91.24%

test system: MIA PaCa-2 pancreatic cell carcinoma; assay: Relative colony forming efficiency after antisense treatment (Table 13); format: cell-based, human; settings: 0.2 μM antisense oligodeoxyribonucleotide phosphorothioate; MIA PaCa-2 cells; averages of 2-8 determinations

Row | Sequence | Reduced relative colony forming efficiency, expressed as % inhibition, MIA PaCa-2
19 | ATGGAAAAAAAAAATCAGCC (DNA, all phosphorothioate, methylation of C not given here) [AS-II-1390-20] | 82.77%
20 | CACACAACCTACTTACACCA (antisense; DNA, all phosphorothioate, methylation of C not given here) [AS-II-2372-20] | 94.36%
21 | CGGGTCCGTGATGGGCGCGA (dC*dG*dG*dG*dT*dC*dC*dG*dT*dG*dA*dT*dG*dG*dG*dC*dG*dC*dG*dA; antisense) [AS-II-217-20] | 87.38%
22 | GCACATCTTCAGTTCATTTA (DNA, all phosphorothioate, methylation of C not given here) [AS-II-1362-20] | 44.14%
23 | ACCCTTCCCATTGGCTGCGC (dA*dC*dC*dC*dT*dT*dC*dC*dC*dA*dT*dT*dG*dG*dC*dT*dG*dC*dG*dC; antisense) [AS-II-6-20] | 95.15%
24 | TGCCTCCGACCCTTCCCATT (antisense dT*dG*dC*dC*dT*dC*dC*dG*dA*dC*dC*dC*dT*dT*dC*dC*dC*dA*dT*dT) [AS-II-14-20] | 47.93%

test system: PC-3 prostrate cell adenocarcinoma; assay: as above; format: cell-based, human; settings: 0.2 μM antisense oligodeoxyribonucleotide phosphorothioate; PC-3 cells; averages of 2-8 determinations

Row | Sequence | Reduced relative colony forming efficiency, expressed as % inhibition, PC-3
25 | ATGGAAAAAAAAAATCAGCC (DNA, all phosphorothioate, methylation of C not given here) [AS-II-1390-20] | 76.76%
26 | CACACAACCTACTTACACCA (antisense; DNA, all phosphorothioate, methylation of C not given here) [AS-II-2372-20] | 86.06%
27 | CGGGTCCGTGATGGGCGCGA (dC*dG*dG*dG*dT*dC*dC*dG*dT*dG*dA*dT*dG*dG*dG*dC*dG*dC*dG*dA; antisense) [AS-II-217-20] | 87.41%
28 | GCACATCTTCAGTTCATTTA (DNA, all phosphorothioate, methylation of C not given here) [AS-II-1362-20] | 77.38%
29 | ACCCTTCCCATTGGCTGCGC (dA*dC*dC*dC*dT*dT*dC*dC*dC*dA*dT*dT*dG*dG*dC*dT*dG*dC*dG*dC; antisense) [AS-II-6-20] | 89.21%
30 | TGCCTCCGACCCTTCCCATT (antisense dT*dG*dC*dC*dT*dC*dC*dG*dA*dC*dC*dC*dT*dT*dC*dC*dC*dA*dT*dT) [AS-II-14-20] | 92.76%

test system: HepG2 hepatocellular carcinoma; assay: Relative colony forming efficiency after antisense treatment (Table 13, FIG. 12); format: cell-based, human; settings: 0.2 μM antisense oligodeoxyribonucleotide phosphorothioate; HepG2 cells; averages of 2-8 determinations

Row | Sequence | Reduced relative colony forming efficiency, expressed as % inhibition, HepG2
31 | ATGGAAAAAAAAAATCAGCC (DNA, all phosphorothioate, methylation of C not given here) [AS-II-1390-20] | 90.21%
32 | CGGGTCCGTGATGGGCGCGA (dC*dG*dG*dG*dT*dC*dC*dG*dT*dG*dA*dT*dG*dG*dG*dC*dG*dC*dG*dA; antisense) [AS-II-217-20] | 99.55%
33 | GCACATCTTCAGTTCATTTA (DNA, all phosphorothioate, methylation of C not given here) [AS-II-1362-20] | 80.41%
34 | ACCCTTCCCATTGGCTGCGC (dA*dC*dC*dC*dT*dT*dC*dC*dC*dA*dT*dT*dG*dG*dC*dT*dG*dC*dG*dC; antisense) [AS-II-6-20] | 97.89%
35 | TGCCTCCGACCCTTCCCATT (antisense dT*dG*dC*dC*dT*dC*dC*dG*dA*dC*dC*dC*dT*dT*dC*dC*dC*dA*dT*dT) [AS-II-14-20] | 88.4%
